# Source: US5359087A, “Bioactive quisqualic acid analogs” (Regents of the University of Minnesota, priority 1993, dated 1994)
# “Also recorded” adds a separate entry of the source. Where two headings read alike, the source gives them in different places.
# Experiments:
# [1] = test system: kainate receptor; settings: cited from earlier work
# [2] = test system: CA1 neurons (rat hippocampal slices); settings: data from Ref. 14, cited from earlier work; for IC50: CA1 region; for sensitization: fractional increase in potency
# [3] = test system: N-acetyl α-linked acidic dipeptidase; settings: hydrolyzes the brain dipeptide Ac-Asp-Glu-OH; cited from earlier work
# [4] = test system: Ca^2+ /Cl^- -dependent glutamic acid uptake system; settings: brain synaptic plasma membrane preparations; cited from earlier work
# [5] = test system: CA1 neurons in rat hippocampal slices; settings: cited from earlier work
# [6] = test system: QUIS effect in hippocampal slices (CA1 region); test: Capability to induce, preblock and reverse the QUIS effect in hippocampal slices; type: cell-based, rat (male Sprague-Dawley); settings: sensitization of slices to depolarization by AP4
# Description: L-Quisqualic acid analogs 2-5 were tested for their capability to induce, preblock and reverse the QUIS effect by the procedures disclosed in the examples hereinbelow. […] Thus, L-quisqualic acid remains the only compound known to induce the QUIS effect. In addition, none of the analogs were capable of preblocking or reversing the sensitization induced by L-quisqualic acid. […] While the precise details are unknown, an induction mechanism shown in FIG. 2, involving multiple sites of interaction such as this, would explain the apparent strict structural requirements for induction, reversal and preblocking of the QUIS effect.
# (§1) Transverse hippocampal slices were obtained from 30-100 day-old male Sprague-Dawley rats. Rats were anesthetized with urethane (1.5 g/kg ip) and then decapitated. The brain was removed and placed in ice-cold preparatory medium comprised of 124 mM NaCl, 3.3 mM KCl, 10 mM MgSO4, 0.5 mM CaCl2, 1.2 mM KH2 PO4, 10 mM glucose, and 26 mM NaHCO3 equilibrated with 95% O2 /5% CO2 (pH 7.4). The hippocampus was then isolated and sliced into 500-μm slices using a Campden Instruments VibroSlice microtome. Slices were submerged in preparatory medium at 28° C. which was aerated with 95% O2 /5% CO2 and incubated for 45 min. Slices were then transferred to recording medium comprised of 124 mM NaCl, 3.3 mM KCl, 2.4 mM MgSO4, 2.5 mM CaCl2, 1.2 mM KH2 PO4, 10 mM glucose, and 26 mM NaHCO3 aerated with 95% O2 /5% CO2 (pH 7.4) and incubated at 28° C. for at least 30 min. prior to use.
# (§2) Slices were transferred to a small recording chamber containing the recording medium at 34° C. Initially, the upper surface of the slice was exposed to a humid atmosphere containing 95% O2 /5% CO2. Bipolar stimulation (0.1 ms, 10-40 V, 0.1 Hz) was delivered to the Schaffer collateral axons via a pair of Teflon-coated stainless steel wires (0.003 in.). […] The evoked extracellular synaptic field potentials were observed using a storage oscilloscope, and the peak amplitudes were sampled and recorded with a chart recorder. When a suitable field potential was obtained, the slice was submerged in oxygenated medium (34° C.) and the response allowed to stabilize. Test compounds were dissolved in oxygenated medium and were added and removed using a push/pull device allowing a complete change of medium within 30 sec.
# Slices were exposed to L-AP4, L-quisqualic acid and the test compound in the following sequence, which is a modification of the previous method: (1) 200 μM L-AP4, (2) test compound, (3) 200 μM L-AP4, (4) 16 μM L-quisqualic acid, (5) 200 μM L-AP4, (6) test compound, (7) 200 μM L-AP4. […] Full concentration-response curves were determined for the test compound both before and after treatment of slices with L-quisqualic acid. […]
# [7] = test system: metabotropic receptor; settings: cited from earlier work
# [8] = test system: AMPA receptor; settings: cited from earlier work
# [9] = test system: QUIS effect in CA1 neurons; settings: cited from earlier work; for reversal of the QUIS effect after it has been induced: CA1 neurons; for blocking (preblocking) of the QUIS effect: brief exposure of CA1 neurons, removed prior to L-quisqualic acid
# [10] = test system: CA1 neurons (rat hippocampal slices); test: Inhibition of evoked synaptic field potential of CA1 neurons in hippocampal slices, before and after L-quisqualic acid exposure; type: cell-based, rat (male Sprague-Dawley); settings: for change in IC50 / sensitization after L-quisqualic acid: hippocampal slices after exposure to L-quisqualic acid; for sensitization: fractional increase in potency after L-quisqualic acid (IC50 before vs after); for stimulatory activity prior to treatment with L-quisqualic acid: prior to treatment of hippocampal slices with L-quisqualic acid; for decrease of IC50 values after exposure of the tissue to L-quisqualic acid: IC50 before vs after L-quisqualic acid
# Description: The IC50 values for inhibition of the evoked synaptic field potential of CA1 neurons of analogs 2-5 were determined both before and after slices were exposed to L-quisqualic acid. Varying degrees of sensitization were observed as shown by the data on Table 2.
# Potencies were determined before and after a 4minute exposure of slices t
# 16 μM Lquisqualic acid. Sensitization refers to the fractional increas
# as §1, §2
# Slices were exposed to L-AP4, L-quisqualic acid and the test compound in the following sequence, which is a modification of the previous method: (1) 200 μM L-AP4, (2) test compound, (3) 200 μM L-AP4, (4) 16 μM L-quisqualic acid, (5) 200 μM L-AP4, (6) test compound, (7) 200 μM L-AP4. Slices were washed between each addition of new drug until the peak amplitude of the field potential returned to its pretest level. Full concentration-response curves were determined for the test compound both before and after treatment of slices with L-quisqualic acid. In addition to determining the potency of compounds before and after addition of L-quisqualic acid, this protocol was designed to test for the ability of test compounds to induce the QUIS effect (and thus mimic the effects of L-quisqualic acid) and to test for the "preblocking" and "reversal" effects which have been previously observed only for L-homocysteine sulfinic acid, L-serine O-sulfate, and L-α-aminoadipic acid.
# Concentration-response data were obtained by exposing the slice to a concentration of drug which was subthreshold for inhibition of the field potential. Drug concentration was doubled every 4 min until the response had either declined more than 70% or the bath concentration of the drug exceeded 10 mM. […] IC50 values were obtained. by plotting the fractional response remaining at the end of 4 min versus the log of the bath concentration of the drug. The concentration which produced a 50% inhibition of the peak amplitude (IC50) was interpolated from the graph. All reported IC50 values are the mean values for four or more experiments. The results are summarized on Table 2, above.
# [11] = test system: AMPA/Quisqualate Excitatory Amino Acid Receptor; test: [3H]AMPA radioligand receptor binding assay; settings: for activity at the AMPA/quisqualate receptor: [3H]AMPA binding; for % Inhibition of [3H]AMPA binding: compound concentration of 10^-5 M
# Description: The assay that was used was a radioligand receptor binding assay using [^3 H]α-amino-3-hydroxy-5-methylisoxazole-4-propionic acid ([^3 H]AMPA) as the radioligand [Murphy et al., Neurochemical Research, 12, 775 (1987)].
# ^a Percent inhibition of [^3 H]AMPA binding at a compound
# concentration of 10^-5 M.
# [12] = after 4-minute exposure to 16 μM L-quisqualic acid, read-out: IC50 Values after quisqualic acid
# [13] = before L-quisqualic acid, read-out: IC50 Values before quisqualic acid
# [14] = Rattus norvegicus, Neuron, 4 min, CA1 region, after 4-minute exposure of slices to 16 μM L-quisqualic acid, read-out: IC50 Values ± SEM after quisqualic acid
# [15] = Rattus norvegicus, Neuron, CA1 region of the hippocampus, before exposure to L-quisqualic acid, mean of four or more experiments, read-out: IC50 Values ± SEM before quisqualic acid
smiles,measurement,setting,value
"N[C@@H](Cn1oc(=O)[nH]c1=O)C(=O)O [L-quisqualic acid, L-Quisqualic acid]",affinity for the kainate receptor,[1],high affinity
same,IC50,[2]; [12],2.9 µM
same,IC50,[2]; [13],3.9 µM
same,sensitization,[2],1.3
same,inhibition of N-acetyl α-linked acidic dipeptidase,[3],inhibits
same,inhibition of Ca2+/Cl- -dependent glutamic acid uptake system,[4],inhibits
same,sensitization of CA1 neurons to depolarization by D- or L-AP4 and related phosphonates,[5],30-100 fold
same,induction of the QUIS effect,[6],only L-quisqualic acid sensitized slices to depolarization by AP4
same,affinity for the metabotropic receptor,[7],high affinity
same,affinity for the AMPA receptor,[8],high affinity
N[C@@H](CCS(=O)O)C(=O)O [L-homocysteinesulfinic acid],reversal of the QUIS effect after it has been induced,[9],capable of reversing the QUIS effect
same,blocking (preblocking) of the QUIS effect,[9],the QUIS effect can be blocked
"N[C@@H](CCP(=O)(O)O)C(=O)O [L-AP4, L-2-amino-4-phosphonobutanoic acid]",IC50,[2]; [12],55 µM
same,IC50,[2]; [13],1800 µM
same,sensitization,[2],33
"N[C@@H](CC1CC(=O)NC1=O)C(=O)O (mixture of isomers) [Compound 5A, 2,5-Dioxo-α(S)-amino-3(RS)-pyrrolidinepropanoic Acid]",IC50,[10]; [14],> 10000 µM
same,IC50,[10]; [15],> 10000 µM
same,change in IC50 / sensitization after L-quisqualic acid,[10],No significant change in IC50 values
same,activity at the AMPA/quisqualate receptor,[11],active at the AMPA/quisqualate receptor
same,% Inhibition of [3H]AMPA binding,[11],55.5%
N[C@@H](COS(=O)(=O)O)C(=O)O [L-serine O-sulfate],reversal of the QUIS effect after it has been induced,[9],capable of reversing the QUIS effect
same,blocking (preblocking) of the QUIS effect,[9],the QUIS effect can be blocked
"N[C@@H](CC1=CC(=O)NC1=O)C(=O)O [Compound 2, (S)-2,5-Dihydro-2,5-dioxo-α-amino-1H-pyrrole-3-propanoic Acid]",IC50,[10]; [14],9.5 ± 2.5 µM
same,IC50,[10]; [15],21 ± 4.4 µM
same,sensitization,[10],2.2
same,stimulatory activity prior to treatment with L-quisqualic acid,[10],high stimulatory activity
same,Ki,[11]; [3H]AMPA radioligand,0.37 µM
same,% Inhibition of [3H]AMPA binding,[11],93.5%
"N[C@@H](CC1CC(=O)NC1=O)C(=O)O (mixture of isomers) [Compound 5B, 2,5-Dioxo-α(S)-amino-3(RS)-pyrrolidinepropanoic Acid]",IC50,"[10]; CA1 region of the hippocampus, before exposure to L-quisqualic acid, mean of four or more experiments, read-out: IC50 Values ± SEM before quisqualic acid",9200 ± 1100 µM
same,IC50,"[10]; CA1 region, after 4-minute exposure of slices to 16 μM L-quisqualic acid, read-out: IC50 Values ± SEM after quisqualic acid",6800 ± 930 µM
same,sensitization,[10],1.3
same,change in IC50 / sensitization after L-quisqualic acid,[10],No significant change in IC50 values
same,activity at the AMPA/quisqualate receptor,[11],active at the AMPA/quisqualate receptor
"N[C@H](CCP(=O)(O)O)C(=O)O [D-AP4, D-2-amino-4-phosphonobutanoic acid]",IC50,[2]; [12],152 µM
same,IC50,[2]; [13],2600 µM
same,sensitization,[2],17
"N[C@H](Cn1oc(=O)[nH]c1=O)C(=O)O [D-quisqualic acid, reference compound]",IC50,"[10]; Rattus norvegicus, Neuron, 4 min, read-out: IC50 Values ± SEM after quisqualic acid",10 ± 1.7 µM
same,IC50,"[10]; Rattus norvegicus, Neuron, read-out: IC50 Values ± SEM before quisqualic acid",78 ± 8.5 µM
same,sensitization,[10],7.5
same,change in IC50 / sensitization after L-quisqualic acid,[10],slices become sensitized
N[C@@H](CCCC(=O)O)C(=O)O [L-α-aminoadipic acid],reversal of the QUIS effect after it has been induced,[9],capable of reversing the QUIS effect
same,blocking (preblocking) of the QUIS effect,[9],the QUIS effect can be blocked
"CN1C(=O)C=C(C[C@H](N)C(=O)O)C1=O [Compound 3, (S)-2,5-Dihydro-2,5-dioxo-α-amino-1-methylpyrrole-3-propanoic Acid]",decrease of IC50 values after exposure of the tissue to L-quisqualic acid,[10],more than 7 fold
same,IC50,[10]; [14],6.8 ± 2.3 µM
same,IC50,[10]; [15],95 ± 19 µM
same,sensitization,[10],14.0
same,change in IC50 / sensitization after L-quisqualic acid,[10],the slices are sensitized to depolarization by these compounds following exposure to L-quisqualic acid; also recorded: first non-phosphorus compounds to which hippocampal slices are known to become sensitized
same,% Inhibition of [3H]AMPA binding,[11],1.1%
same,induction of the QUIS effect,[6],do not induce the QUIS effect
"N[C@@H](CC1=CC(=O)N(CC(=O)O)C1=O)C(=O)O [Compound 4, (S)-2,5-Dihydro-2,5-dioxo-α-amino-1-(carboxymethyl)pyrrole-3-propanoic Acid]",decrease of IC50 values after exposure of the tissue to L-quisqualic acid,[10],more than 7 fold
same,IC50,[10]; [14],375 ± 75 µM
same,IC50,[10]; [15],2900 ± 320 µM
same,sensitization,[10],7.7
same,change in IC50 / sensitization after L-quisqualic acid,[10],the slices are sensitized to depolarization by these compounds following exposure to L-quisqualic acid; also recorded: first non-phosphorus compounds to which hippocampal slices are known to become sensitized
same,induction of the QUIS effect,[6],do not induce the QUIS effect
N[C@@H](CN1CC(=O)NC1=O)C(=O)O [Compound 6],IC50,[10]; [14],0.8 ± 0.26 µM
same,IC50,[10]; [15],1.4 ± 0.6 µM
same,IC50,"[10]; Rattus norvegicus, Neuron, CA1 region of the rat hippocampus, read-out: IC50, stimulatory effect on CA1 region of the rat hippocampus",1.4 ± 0.6 µM
same,sensitization,[10],1.7
same,stimulatory activity prior to treatment with L-quisqualic acid,[10],high stimulatory activity
same,induction of the QUIS effect,[6],did not exhibit the QUIS effect
